Measurements reported in ChEMBL document CHEMBL1201862, “PubChem BioAssay data set” (2004).
Counter-ions that a name gives are not always drawn.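 Growth conditions: 96-well plates. Treatment: test compound, 48 hours, 5 concentrations. Analysis: linear interpolation between bracketing concentrations; unreached endpoints set to highest concentration. The concentration for 50% growth inhibition is given as GI50.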 Activity calls are given as the source filed them. No stated cut-off is given here; in the data, active = GI50 up to about 1.1 µM and inactive = higher.

Legend:
Test in all cases: NCI-60 cell line screen, 48 h
A549 = tested on: A549
COLO 205 = tested on: COLO 205
HOP-92 = tested on: HOP-92
HT-29 = tested on: HT-29
IGROV-1 = tested on: IGROV-1
K562 = tested on: K562
M14 = tested on: M14
MCF7 = tested on: MCF7
MDA-MB-231 = tested on: MDA-MB-231
MDA-MB-435 = tested on: MDA-MB-435
NCI-H226 = tested on: NCI-H226
OVCAR-4 = tested on: OVCAR-4
PC-3 = tested on: PC-3
SK-OV-3 = tested on: SK-OV-3
SNB-19 = tested on: SNB-19
SW-620 = tested on: SW-620
U-251 = tested on: U-251
UACC-62 = tested on: UACC-62
HL-60 = tested on: HL-60
SR = tested on: SR

Measured: GI50

OCCN(CO)CO
inactive: A549 > 100 µM | COLO 205 > 100 µM | HOP-92 > 100 µM | HT-29 > 100 µM | IGROV-1 > 100 µM | K562 > 100 µM | M14 > 100 µM | MCF7 > 100 µM | MDA-MB-231 > 100 µM | MDA-MB-435 > 100 µM | NCI-H226 > 100 µM | OVCAR-4 > 100 µM | PC-3 > 100 µM | SK-OV-3 > 100 µM | SNB-19 > 100 µM | SW-620 > 100 µM | U-251 > 100 µM | UACC-62 > 100 µM

CC1(CC2=C(C(=O)NCCO[Si](C)(C)C(C)(C)C)C3(OCCO3)C2=O)OCCO1
inactive: A549 > 100 µM | COLO 205 > 100 µM | HL-60 29.1 µM | HOP-92 > 100 µM | HT-29 > 100 µM | IGROV-1 92.7 µM | M14 > 100 µM | MCF7 > 100 µM | MDA-MB-231 > 100 µM | MDA-MB-435 > 100 µM | NCI-H226 71.1 µM | OVCAR-4 > 100 µM | PC-3 > 100 µM | SK-OV-3 > 100 µM | SNB-19 > 100 µM | SW-620 > 100 µM | U-251 > 100 µM | UACC-62 > 100 µM

NNc1nncc2[nH]nnc12
inactive: A549 > 100 µM | COLO 205 > 100 µM | HL-60 48.1 µM | HT-29 > 100 µM | IGROV-1 > 100 µM | K562 > 100 µM | M14 > 100 µM | MCF7 > 100 µM | MDA-MB-231 > 100 µM | MDA-MB-435 > 100 µM | NCI-H226 > 100 µM | PC-3 > 100 µM | SNB-19 > 100 µM | SR 41.5 µM | SW-620 > 100 µM | U-251 > 100 µM | UACC-62 > 100 µM

CCc1cccc(CC)c1Nc1nc2c(s1)C(=O)c1ccccc1C2=O
inactive: A549 31.4 µM | COLO 205 22.9 µM | HL-60 26.4 µM | HOP-92 19.5 µM | IGROV-1 12.2 µM | K562 28 µM | M14 17.4 µM | MCF7 22.4 µM | MDA-MB-231 16.5 µM | MDA-MB-435 17.5 µM | PC-3 13.3 µM | SK-OV-3 27.3 µM | SNB-19 17 µM | SR 23.3 µM | SW-620 26.1 µM | U-251 15.8 µM | UACC-62 17.2 µM

CC1=CC(=O)/C(=C/Nc2nc(-c3ccc([N+](=O)[O-])cc3)cs2)C(=O)O1
inactive: A549 > 100 µM | COLO 205 > 100 µM | HL-60 19.9 µM | HOP-92 > 100 µM | HT-29 > 100 µM | IGROV-1 > 100 µM | K562 > 100 µM | M14 > 100 µM | MCF7 > 100 µM | MDA-MB-231 > 100 µM | MDA-MB-435 > 100 µM | NCI-H226 > 100 µM | OVCAR-4 > 100 µM | PC-3 46.5 µM | SK-OV-3 > 100 µM | SNB-19 86.5 µM | SW-620 > 100 µM | U-251 > 100 µM | UACC-62 > 100 µM

C=C1C(=O)OC2C1CC(OC(C)=O)/C(C)=C/CCC1(C)OC21 (stereo unspecified)
inactive: A549 > 100 µM | COLO 205 > 100 µM | HL-60 > 100 µM | HOP-92 > 100 µM | HT-29 > 100 µM | IGROV-1 > 100 µM | K562 > 100 µM | M14 > 100 µM | MCF7 > 100 µM | MDA-MB-231 > 100 µM | MDA-MB-435 > 100 µM | NCI-H226 > 100 µM | OVCAR-4 > 100 µM | PC-3 > 100 µM | SK-OV-3 > 100 µM | SNB-19 > 100 µM | SW-620 > 100 µM | U-251 > 100 µM | UACC-62 > 100 µM

C=C(C(=O)OCC)C(=O)OCC
inactive: A549 > 100 µM | COLO 205 > 100 µM | HOP-92 > 100 µM | HT-29 > 100 µM | IGROV-1 > 100 µM | K562 > 100 µM | M14 > 100 µM | MCF7 > 100 µM | MDA-MB-231 > 100 µM | MDA-MB-435 > 100 µM | NCI-H226 > 100 µM | PC-3 > 100 µM | SK-OV-3 > 100 µM | SNB-19 > 100 µM | SR 20.7 µM | SW-620 > 100 µM | U-251 > 100 µM | UACC-62 > 100 µM

C=C(C)[C@@H]1CC[C@]2(C(=O)O)CC[C@]3(C)[C@H](CC[C@@H]4[C@@]5(C)CC[C@H](C(=O)/C=C/c6ccc(O)cc6)C(C)(C)[C@@H]5CC[C@]43C)[C@@H]12
inactive: A549 9.73 µM | COLO 205 2.39 µM | HL-60 1.15 µM | HOP-92 11.9 µM | HT-29 3.38 µM | IGROV-1 8.17 µM | K562 3.11 µM | M14 7.13 µM | MCF7 3.67 µM | MDA-MB-231 6.65 µM | MDA-MB-435 7.67 µM | OVCAR-4 9.98 µM | PC-3 5.98 µM | SK-OV-3 6.15 µM | SNB-19 6.92 µM | SR 4.06 µM | SW-620 2.93 µM | U-251 2.93 µM | UACC-62 8.89 µM

CC(C)C1SCc2nc3ccccc3n21 (stereo unspecified)
active: NCI-H226 < 0.01 µM
inactive: A549 37.9 µM | COLO 205 12.7 µM | HL-60 43 µM | HOP-92 16.3 µM | HT-29 40.4 µM | IGROV-1 24.4 µM | K562 34.5 µM | M14 33.4 µM | MCF7 13.9 µM | MDA-MB-231 24.2 µM | MDA-MB-435 28.8 µM | OVCAR-4 27.4 µM | PC-3 13.2 µM | SK-OV-3 > 100 µM | SNB-19 51.8 µM | SW-620 65.8 µM | U-251 51.4 µM | UACC-62 35.1 µM

COc1cc2c(cc1OC)C1c3ccccc3CCN1CCC2.[O-][Cl+3]([O-])([O-])O (stereo unspecified)
inactive: A549 > 100 µM | COLO 205 > 100 µM | HL-60 68.5 µM | HT-29 69.7 µM | IGROV-1 > 100 µM | K562 76 µM | M14 > 100 µM | MCF7 > 100 µM | MDA-MB-231 > 100 µM | MDA-MB-435 83.6 µM | NCI-H226 > 100 µM | PC-3 > 100 µM | SK-OV-3 > 100 µM | SNB-19 > 100 µM | SR > 100 µM | SW-620 > 100 µM | U-251 > 100 µM | UACC-62 > 100 µM

CSc1c(C#N)c(O)nc(N)c1C(=O)Nc1ccc(C)cc1
inactive: A549 > 100 µM | COLO 205 > 100 µM | HL-60 > 100 µM | HT-29 > 100 µM | K562 > 100 µM | M14 > 100 µM | MCF7 > 100 µM | MDA-MB-231 > 100 µM | MDA-MB-435 > 100 µM | NCI-H226 34.4 µM | OVCAR-4 > 100 µM | PC-3 > 100 µM | SK-OV-3 > 100 µM | SNB-19 > 100 µM | SR > 100 µM | SW-620 > 100 µM | U-251 > 100 µM | UACC-62 > 100 µM

COc1cc(C(=O)/C=C/c2ccc(OCCSCCCCCCCCCCSCCOc3ccc(/C=C/C(=O)c4cc(OC)c(OC)c(OC)c4)cc3)cc2)cc(OC)c1OC
inactive: A549 > 100 µM | COLO 205 > 100 µM | HL-60 > 100 µM | HOP-92 > 100 µM | HT-29 > 100 µM | IGROV-1 > 100 µM | K562 > 100 µM | M14 > 100 µM | MCF7 > 100 µM | MDA-MB-231 > 100 µM | MDA-MB-435 > 100 µM | PC-3 > 100 µM | SNB-19 > 100 µM | SR > 100 µM | SW-620 > 100 µM | U-251 > 100 µM | UACC-62 > 100 µM

Cn1cc(C[C@@H](N)C(=O)O)c2ccccc21 [INDOXIMOD]
inactive: A549 > 100 µM | COLO 205 > 100 µM | HL-60 > 100 µM | HT-29 > 100 µM | IGROV-1 > 100 µM | K562 > 100 µM | M14 > 100 µM | MCF7 > 100 µM | MDA-MB-231 > 100 µM | MDA-MB-435 > 100 µM | NCI-H226 > 100 µM | OVCAR-4 > 100 µM | PC-3 > 100 µM | SK-OV-3 > 100 µM | SNB-19 > 100 µM | SR > 100 µM | SW-620 > 100 µM | U-251 > 100 µM | UACC-62 > 100 µM

CCN(CC)CCNc1ccc(C)c2sc3ccccc3c(=O)c12 [LUCANTHONE HYDROCHLORIDE]
inactive: A549 2.61 µM | COLO 205 1.67 µM | HL-60 1.79 µM | HT-29 1.67 µM | IGROV-1 5.42 µM | K562 1.97 µM | M14 1.75 µM | MCF7 2.39 µM | MDA-MB-231 2.85 µM | MDA-MB-435 2.04 µM | NCI-H226 5.04 µM | OVCAR-4 4.66 µM | PC-3 2.03 µM | SK-OV-3 6.71 µM | SNB-19 2.54 µM | SR 2.33 µM | SW-620 1.76 µM | U-251 2.33 µM | UACC-62 1.84 µM

C=C1C(=O)[C@]23[C@H](O)[C@H]1CC[C@H]2[C@@]12CO[C@@]3(O)C[C@@H]1C(C)(C)CC[C@@H]2O [MEGATHYRIN A]
inactive: A549 16.2 µM | COLO 205 3.98 µM | HL-60 8.45 µM | HOP-92 > 25 µM | HT-29 6.21 µM | IGROV-1 7.14 µM | K562 7.41 µM | MCF7 6.18 µM | MDA-MB-231 5.66 µM | MDA-MB-435 4.12 µM | NCI-H226 8.22 µM | OVCAR-4 > 25 µM | PC-3 9.2 µM | SNB-19 21.2 µM | SR 7.55 µM | SW-620 5.5 µM
